Source: patent US9617602B2, “Methods and compositions for determining resistance to androgen receptor therapy” (Aragon Pharmaceuticals, Inc., priority 2012, dated 2017)

Legend:
Type in all cases: cell-based, human
LNCaP/AR(cs) cells = assay: Endogenous gene transcriptional assay (real-time PCR of androgen responsive genes);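 for ORM1 expression, agonist transcription: LNCaP/AR(cs) cells without added R1881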;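 for PLD1 expression, agonist transcription: LNCaP/AR(cs) cells without added R1881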;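 for PSA expression, agonist transcription: LNCaP/AR(cs) cells without added R1881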;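 for SLUG expression, agonist transcription: LNCaP/AR(cs) cells without added R1881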;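 for TMPRSS2 expression, agonist transcription: LNCaP/AR(cs) cells without added R1881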
[1] = tested on: Class 1 ARN-509- and MDV3100-resistant cell lines; assay: Proliferation assay (CellTiter-Glo), agonist and antagonist mode
LNCaP cells = assay: Transcriptional reporter assay (probasin-luciferase)
Procedure: With the exception of the LNCaP/AR(cs)-Luc cells that contain an integrated androgen responsive reporter, cells were transiently transfected using Lipofectin® (Life Technologies) according to the manufacturer's protocol. […] Following transfection, the cells were incubated for 4 hours.
Following 48 hour incubation the medium was removed and the cells were lysed in 40 μL of lysis buffer (25 mM Tris Phosphate, 2 mM CDTA, 10% Glycerol, 0.5% Triton X-100, 2 mM DTT).

[2] = Table 4A, 1 nM R1881 or 30 μM compound, vehicle=1.00

How did the “STEAP4 expression, antagonist transcription” value (LNCaP/AR(cs) cells; +1 nM R1881, 30 μM) turn out when CNC(=O)c1ccc(N2C(=S)N(c3ccc(C#N)c(C(F)(F)F)c3)C(=O)C2(C)C)cc1F [Enzalutamide, enzalutamide] was run?
Its value is 7.79.

And the “TMPRSS2 expression, antagonist transcription” value (LNCaP/AR(cs) cells; +1 nM R1881, 30 μM)?
Its value is 4.62.

And the FASN gene expression (LNCaP/AR(cs) cells; [2])?
The FASN gene expression was 1.19.

And the FKBP5 gene expression (LNCaP/AR(cs) cells; [2])?
The FKBP5 gene expression was 1.71.

And the HPGD gene expression (LNCaP/AR(cs) cells; [2])?
Its HPGD gene expression is 2.01.

And the NKX3.1 gene expression (LNCaP/AR(cs) cells; [2])?
The NKX3.1 gene expression was 2.51.

What about the ORM1 gene expression (LNCaP/AR(cs) cells; [2]) of the same molecule?
The ORM1 gene expression was 3.58.

What about the PLD1 gene expression (LNCaP/AR(cs) cells; [2]) of the same molecule?
Its PLD1 gene expression is 0.65.

And the PSA gene expression (LNCaP/AR(cs) cells; [2])?
Its PSA gene expression is 2.69.

And the SLUG gene expression (LNCaP/AR(cs) cells; [2])?
The SLUG gene expression was 2.06.

And the TMPRSS2 gene expression (LNCaP/AR(cs) cells; [2])?
Its TMPRSS2 gene expression is 2.36.

What about the “AMIGO2 expression, agonist transcription” value (LNCaP/AR(cs) cells; −R1881, 0.3 μM) of the same molecule?
The value was 0.68.

What about the “CAM2KN1 expression, agonist transcription” value (“CAM2KN1 expression” below) (LNCaP/AR(cs) cells; −R1881, 0.3 μM) of the same molecule?
The value was 0.80.

What about the “FASN expression, agonist transcription” value (LNCaP/AR(cs) cells; −R1881, 0.3 μM) of the same molecule?
The value was 0.47.

What about the “FKBP5 expression, agonist transcription” value (LNCaP/AR(cs) cells; −R1881, 0.3 μM) of the same molecule?
Its value is 0.91.

And the “HPGD expression, agonist transcription” value (LNCaP/AR(cs) cells; −R1881, 0.3 μM)?
Its value is 0.74.

What about the “NCAPD3 expression, agonist transcription” value (LNCaP/AR(cs) cells; −R1881, 0.3 μM) of the same molecule?
The value was 0.66.

And the “NKX3.1 expression, agonist transcription” value (LNCaP/AR(cs) cells; −R1881, 0.3 μM)?
The value was 0.71.

And the “NOV expression, agonist transcription” value (LNCaP/AR(cs) cells; −R1881, 0.3 μM)?
The value was 1.12.

And the “ORM1 expression, agonist transcription” value (LNCaP/AR(cs) cells; −R1881, 0.3 μM)?
The value was 0.92.

What about the “PLD1 expression, agonist transcription” value (LNCaP/AR(cs) cells; −R1881, 0.3 μM) of the same molecule?
Its value is 0.77.

And the “PSA expression, agonist transcription” value (LNCaP/AR(cs) cells; −R1881, 0.3 μM)?
The value was 0.42.

And the “SLUG expression, agonist transcription” value (LNCaP/AR(cs) cells; −R1881, 0.3 μM)?
The value was 0.53.

And the “STEAP4 expression, agonist transcription” value (LNCaP/AR(cs) cells; −R1881, 0.3 μM)?
Its value is 0.75.

And the “TMPRSS2 expression, agonist transcription” value (LNCaP/AR(cs) cells; −R1881, 0.3 μM)?
Its value is 0.75.

And the “AMIGO2 expression, agonist transcription” value (LNCaP/AR(cs) cells; −R1881, 1 μM)?
The value was 0.61.

What about the “BDNF expression, agonist transcription” value (LNCaP/AR(cs) cells; −R1881, 1 μM) of the same molecule?
The value was 0.92.

And the “CAM2KN1 expression” value (LNCaP/AR(cs) cells; −R1881, 1 μM)?
The value was 0.70.

And the “FASN expression, agonist transcription” value (LNCaP/AR(cs) cells; −R1881, 1 μM)?
The value was 0.32.

What about the “FKBP5 expression, agonist transcription” value (LNCaP/AR(cs) cells; −R1881, 1 μM) of the same molecule?
The value was 0.62.

What about the “HPGD expression, agonist transcription” value (LNCaP/AR(cs) cells; −R1881, 1 μM) of the same molecule?
The value was 0.57.

What about the “NCAPD3 expression, agonist transcription” value (LNCaP/AR(cs) cells; −R1881, 1 μM) of the same molecule?
Its value is 0.57.

And the “NKX3.1 expression, agonist transcription” value (LNCaP/AR(cs) cells; −R1881, 1 μM)?
Its value is 0.52.

What about the “NOV expression, agonist transcription” value (LNCaP/AR(cs) cells; −R1881, 1 μM) of the same molecule?
Its value is 0.91.

What about the “ORM1 expression, agonist transcription” value (LNCaP/AR(cs) cells; −R1881, 1 μM) of the same molecule?
Its value is 0.90.

And the “PLD1 expression, agonist transcription” value (LNCaP/AR(cs) cells; −R1881, 1 μM)?
The value was 0.62.

What about the “PSA expression, agonist transcription” value (LNCaP/AR(cs) cells; −R1881, 1 μM) of the same molecule?
Its value is 0.32.

And the “SLUG expression, agonist transcription” value (LNCaP/AR(cs) cells; −R1881, 1 μM)?
The value was 0.55.

What about the “STEAP4 expression, agonist transcription” value (LNCaP/AR(cs) cells; −R1881, 1 μM) of the same molecule?
Its value is 0.73.

What about the “TMPRSS2 expression, agonist transcription” value (LNCaP/AR(cs) cells; −R1881, 1 μM) of the same molecule?
The value was 0.53.

What about the “AMIGO2 expression, agonist transcription” value (LNCaP/AR(cs) cells; −R1881, 3 μM) of the same molecule?
Its value is 0.62.

What about the “BDNF expression, agonist transcription” value (LNCaP/AR(cs) cells; −R1881, 3 μM) of the same molecule?
Its value is 0.88.

What about the “CAM2KN1 expression” value (LNCaP/AR(cs) cells; −R1881, 3 μM) of the same molecule?
Its value is 0.71.

What about the “FASN expression, agonist transcription” value (LNCaP/AR(cs) cells; −R1881, 3 μM) of the same molecule?
Its value is 0.29.

And the “FKBP5 expression, agonist transcription” value (LNCaP/AR(cs) cells; −R1881, 3 μM)?
The value was 0.75.

And the “HPGD expression, agonist transcription” value (LNCaP/AR(cs) cells; −R1881, 3 μM)?
The value was 0.61.

What about the “NCAPD3 expression, agonist transcription” value (LNCaP/AR(cs) cells; −R1881, 3 μM) of the same molecule?
Its value is 0.47.

What about the “NKX3.1 expression, agonist transcription” value (LNCaP/AR(cs) cells; −R1881, 3 μM) of the same molecule?
The value was 0.51.

And the “NOV expression, agonist transcription” value (LNCaP/AR(cs) cells; −R1881, 3 μM)?
The value was 0.80.

And the “ORM1 expression, agonist transcription” value (LNCaP/AR(cs) cells; −R1881, 3 μM)?
The value was 1.06.

What about the “PLD1 expression, agonist transcription” value (LNCaP/AR(cs) cells; −R1881, 3 μM) of the same molecule?
Its value is 0.63.

And the “PSA expression, agonist transcription” value (LNCaP/AR(cs) cells; −R1881, 3 μM)?
The value was 0.38.

What about the “SLUG expression, agonist transcription” value (LNCaP/AR(cs) cells; −R1881, 3 μM) of the same molecule?
Its value is 0.31.

And the “STEAP4 expression, agonist transcription” value (LNCaP/AR(cs) cells; −R1881, 3 μM)?
The value was 0.52.

What about the “TMPRSS2 expression, agonist transcription” value (LNCaP/AR(cs) cells; −R1881, 3 μM) of the same molecule?
Its value is 0.63.

What about the “AMIGO2 expression, agonist transcription” value (LNCaP/AR(cs) cells; −R1881, 10 μM) of the same molecule?
The value was 0.66.

What about the “BDNF expression, agonist transcription” value (LNCaP/AR(cs) cells; −R1881, 10 μM) of the same molecule?
The value was 0.95.

And the “CAM2KN1 expression” value (LNCaP/AR(cs) cells; −R1881, 10 μM)?
The value was 0.64.

What about the “FASN expression, agonist transcription” value (LNCaP/AR(cs) cells; −R1881, 10 μM) of the same molecule?
Its value is 0.31.

What about the “FKBP5 expression, agonist transcription” value (LNCaP/AR(cs) cells; −R1881, 10 μM) of the same molecule?
The value was 0.61.

What about the “HPGD expression, agonist transcription” value (LNCaP/AR(cs) cells; −R1881, 10 μM) of the same molecule?
The value was 0.63.

And the “NCAPD3 expression, agonist transcription” value (LNCaP/AR(cs) cells; −R1881, 10 μM)?
Its value is 0.56.

And the “NKX3.1 expression, agonist transcription” value (LNCaP/AR(cs) cells; −R1881, 10 μM)?
Its value is 0.86.

What about the “ORM1 expression, agonist transcription” value (LNCaP/AR(cs) cells; −R1881, 10 μM) of the same molecule?
Its value is 0.71.

What about the “PLD1 expression, agonist transcription” value (LNCaP/AR(cs) cells; −R1881, 10 μM) of the same molecule?
The value was 0.56.

What about the “PSA expression, agonist transcription” value (LNCaP/AR(cs) cells; −R1881, 10 μM) of the same molecule?
Its value is 0.74.

What about the “SLUG expression, agonist transcription” value (LNCaP/AR(cs) cells; −R1881, 10 μM) of the same molecule?
The value was 0.51.

What about the “STEAP4 expression, agonist transcription” value (LNCaP/AR(cs) cells; −R1881, 10 μM) of the same molecule?
Its value is 1.16.

And the “TMPRSS2 expression, agonist transcription” value (LNCaP/AR(cs) cells; −R1881, 10 μM)?
Its value is 0.89.

What about the “CAM2KN1 expression” value (LNCaP/AR(cs) cells; −R1881, 30 μM) of the same molecule?
The value was 0.64.

What about the “FKBP5 expression, agonist transcription” value (LNCaP/AR(cs) cells; −R1881, 30 μM) of the same molecule?
Its value is 0.85.

And the “NCAPD3 expression, agonist transcription” value (LNCaP/AR(cs) cells; −R1881, 30 μM)?
The value was 0.79.

And the “NKX3.1 expression, agonist transcription” value (LNCaP/AR(cs) cells; −R1881, 30 μM)?
The value was 1.63.

And the “ORM1 expression, agonist transcription” value (LNCaP/AR(cs) cells; −R1881, 30 μM)?
Its value is 2.02.

What about the “PLD1 expression, agonist transcription” value (LNCaP/AR(cs) cells; −R1881, 30 μM) of the same molecule?
The value was 0.56.

What about the “PSA expression, agonist transcription” value (LNCaP/AR(cs) cells; −R1881, 30 μM) of the same molecule?
Its value is 1.60.

And the “SLUG expression, agonist transcription” value (LNCaP/AR(cs) cells; −R1881, 30 μM)?
The value was 0.91.

And the “TMPRSS2 expression, agonist transcription” value (LNCaP/AR(cs) cells; −R1881, 30 μM)?
The value was 1.45.

And the “Effect on growth inhibitory activity of R1881 in Class 1 cells” value [1]?
Its value is “antagonized”.

And the “Ligand independent growth of Class 1 cells in presence of compound” value ([1]; absence of added androgens)?
Its value is “unaltered”.

And the “Agonist Transcriptional Reporter Assay (% Max Activity)” value (LNCaP cells; [Antagonists] = 50 μM)?
Its value is “+ (‘+’ = <5)”.

And the “Antagonist Transcriptional Reporter Assay (% Max Activity)” value (LNCaP cells; [Antagonists] = 50 μM in presence of R1881)?
The value was “+ (‘+’ = <5)”.
